Assay results reported in publication PMC11079024, “Identification of a family of species-selective complex I inhibitors as potential anthelmintics” (Nature Communications, 2024).
“And” between values parts separate entries of the source, which are not always exact repeats. Identical values can stand only once. Like-named read-outs stand apart in the source and are kept apart here.

What was measured:
[1] = test system: C. elegans complex IV (cytochrome C oxidase); assay: In vitro complex IV activity assay, C. elegans mitochondria; type: biochemical, Caenorhabditis elegans; conditions: for CIV Activity: 100 μM inhibitor, in vitro activity relative to solvent control, N2 C. elegans mitochondria
Description: (§1) Mitochondria were isolated from the following free-living nematode strains: C. elegans—N2, CB3474, ECA882, ECA917, ECA1075, ECA1080; C. briggsae—AF16; P. pacificus—PS312; and P. hermaphrodita—B178. With the exception of the P. hermaphrodita strain B178, adult worms of each strain were grown in bulk through liquid culture to obtain mitochondria in sufficient quantities. Due to poor growth in liquid media, mixed stage populations of P. hermaphrodita were washed off and collected from NGM plates seeded with OP50. The isolation of mitochondria from all free-living nematode strains followed the protocol previously outlined in Burns et al.[24]. In brief, a 1 L saturated culture of E. coli HB101 was concentrated 20-fold in 50 mL complete S-medium. ~500,000 L1 worms synchronized from an embryo preparation performed the day prior were added to the S-media/HB101 suspension and grown to adulthood over the course of 3.5 days at 20 °C with shaking at 165 rpm. Following growth, worms were collected in 10 ×15 mL conical tubes and washed 7 times in M9 buffer. Worm suspensions were then combined into a single 15 mL conical tube and diluted to a final volume of 15 mL with M9 buffer. 1 mL aliquots of worm suspension were then distributed to 15 × 1.5 mL screw-cap microcentrifuge tubes and were pelleted at 500 g for 1 min. Excess M9 was aspirated without disturbing the worm pellet. 600 μL ice-cold isolate buffer A (250 mM sucrose, 10 mM Tris (pH 7.5), 1 mM EDTA, 1 mM PMSF (freshly prepared)) and 300 μL cold glass beads were then added to each tube. Tubes were incubated on ice for 10 min, and the worms were then lysed by bead beating (6 x 30 s, with 1 min cooling intervals). Tubes containing worm lysate were centrifuged at 1,000 g for 10 min at 4 °C and the supernatant was transferred to 15 new microcentrifuge tubes on ice. The tubes were centrifuged a second time at 1,000 g for 10 min at 4 °C and the supernatant was once again transferred to 15 new microcentrifuge tubes on ice. These tubes were then centrifuged at 16,000 g for 10 min at 4 °C. The resulting mitochondrial pellet was washed twice by re-suspension in 300 μL of ice-cold isolate buffer B (250 mM sucrose, 10 mM Tris (pH 7.5), 1 mM EDTA). Following the final wash, isolation buffer was aspirated from each tube and the pellets were flash-frozen in ethanol/dry ice and stored at −80 °C until needed.
(§2) The enzymatic activities of individual ETC complexes (I-IV) were assessed spectrophotometrically in isolated mitochondria using a Varioskan LUX Multimode plate reader (ThermoFisher Scientific). Mitochondrial pellets previously isolated were thawed on ice and resuspended in ice-cold isolation buffer (250 mM sucrose, 10 mM Tris (pH 7.5), 1 mM EDTA). The BCA assay (Walker, 1994) was used to quantify the protein concentration of mitochondria suspensions; solutions were diluted to a concentration of 0.2 mg/mL for use in all assays. For the complex I assay, mitochondria pellets were freeze-thawed on ice three times to increase enzyme accessibility. […] 20 μL mitochondria suspension was then added/mixed with a pipette to initiate the reaction. Immediately following the addition of mitochondria, absorbance was measured (complex I and II: 600 nm; complex III and IV: 550 nm) in 30 s intervals over 15 min. Enzymatic activity was determined in each reaction by plotting absorbance versus time and calculating the slope of the curve during the initial linear phase of the reaction. […] Percent activity of each complex was calculated by dividing the enzyme-specific activity of each well by the enzyme-specific activity of the corresponding solvent controls.
Complex IV (cytochrome C oxidase) activity was determined by following the oxidation of CytC in the protocol outlined by Janssen and Boyle, 2019[60]. Reduced CytC was prepared fresh by adding 1 μL increments of 1 M dithiothreitol to a 1 mM solution of CytC and vortexing. A colour change from brown to orange/pink signals when CytC has been reduced.

[2] = biological target: C. elegans complex II (succinate dehydrogenase) (Caenorhabditis elegans, UniProt O62215+P41956+Q09545); assay: In vitro complex II activity assay, C. elegans mitochondria; type: biochemical
Description: as §1, §2
Complex II (succinate dehydrogenase) activity was assessed using the DCIP-coupled method previously described in Burns et al.[24].
For preliminary screens of hit compounds, compounds were screened at 100 μM; data are the average of at least three biological replicates. The complex I and II activity assays were used for additional dose-response experiments.

[3] = test system: C. elegans complex III (decylubiquinol-cytochrome C reductase); assay: In vitro complex III activity assay, C. elegans mitochondria; type: biochemical, Caenorhabditis elegans; conditions: for CIII Activity: 100 μM inhibitor, in vitro activity relative to solvent control, N2 C. elegans mitochondria
Description: as §1, §2
Antimycin A-sensitive complex III (decylubiquinol-cytochrome C […]) activity was determined by measuring the reduction of cytochrome C (CytC) as optimized in Luo et al.[59]. Decylubiquinol for complex III assays was prepared fresh as described in Janssen and Boyle, 2019[60].

[4] = biological target: C. elegans (N2) complex I (NADH:ubiquinone oxidoreductase) (Caenorhabditis elegans, UniProt P24887+Q93873+Q94360); assay: biochemical; type: biochemical; conditions: for Log IC50 C. elegans complex I: log10 of IC50 in µM
Description: as §1, §2
Chemical solutions were prepared in complex I assay buffer composed of 25 mM KPi buffer (pH 7.5), 3 mg/mL bovine serum albumin (BSA), 80 μM NADH, 60 μM decylubiquinone, 160 μM DCIP, 2 μM antimycin A and 2 mM KCN.
For preliminary screens of hit compounds, compounds were screened at 100 μM; data are the average of at least three biological replicates.

[5] = test system: L1 wild-type C. elegans; conditions: […]; for Relative Motility: relative to DMSO controls, single biological replicate
[6] = test system: L1 wild-type C. elegans; assay: microbe, parasite or virus in culture; conditions: Caenorhabditis elegans, read-out: C. elegans KCN Survival Assay LC50, estimated from fitted dose-response curves; mean of at least two biological replicates
[7] = test system: ben-1 mutant (ECA882) C. elegans; assay: microbe, parasite or virus in culture; conditions: Caenorhabditis elegans
Description: Liquid development and viability assays were adapted from a previously established chemical screening protocol (Burns et al.)[24]. In brief, a saturated culture of E. coli HB101 was concentrated 2-fold in liquid NGM and 40 μL of this suspension was distributed to each well of a 96-well flat-bottom culture plate. 0.5 μL chemical solution (or DMSO alone) was added to each well (1% DMSO v/v) using either a multi-channel pipette or a pinning tool (V&P Scientific). L1 worms synchronized from an embryo preparation performed the day prior were diluted to a concentration of ~2 worms/μL in M9 buffer; 10 μL worm suspension was then added to each well. Culture plates were sealed with parafilm and placed in a plastic container lined with wet paper towels to prevent evaporation. Containers were then incubated for 6 days at 20 °C with shaking at 165 rpm. Following incubation, 300 μL M9 was added to each well to decrease the turbidity of the HB101-NGM suspension. Single images of each microplate well were then taken on a Nikon Ti Eclipse inverted microscope (Nikon NIS Elements AR). Images were processed using Python scripts to isolate worm-associated pixels from background. Scores of worm development and viability were determined as the sum of worm-associated pixels in each well. Development/viability scores for each well were divided by the development /viability scores for the corresponding DMSO controls, resulting in a relative viability value for each chemical. At least three biological replicates were performed for each dose-response experiment; relative viability values were averaged across replicates. […]
anthelmintics. a. Chemical structures of four commercial benzimidazole anthelmintics (e.g., albendazole, […]
Dose response of four commercial […]
elegans strains: N2, wild type; ECA882, deletion (ben-1); ECA917, F200Y (ben-1); ECA1075, F167Y (ben-1); ECA1080, E198A (ben-1); CB3474, G104D (ben-1). The colour-coded scale denotes the phenotypic outcome of drug treatment (e.g., motility or viability) relative to DMSO controls; white/pale- […]
death and arrested development. c. […]
benzimidazole anthelmintics (blue) were conducted in C. elegans development and viability assays for wild type (N2) and ben-1 mutant (ECA882) C. elegans (see Supplementary Date File 1).
All data used for generation of dose-response curves is the mean of at least three […]
Supplementary Figure 7 (continued). Davie et al.

[8] = 100 µM compound, relative to solvent control, mean (SEM)
[9] = 100 μM of NPD compound, C. elegans mitochondria, individual biological replicates
[10] = 100 μM of NPD compound, C. elegans mitochondria, mean of four biological replicates
[11] = 100 μM of NPD compound, C. elegans mitochondria, individual biological replicates, 100 µM
[12] = in vitro complex I dose response on C. elegans mitochondria, average of at least two biological replicates, fit in R (DRC), read-out: IC50 C. elegans complex I
[13] = wild-type C. elegans mitochondria, estimated from fitted dose-response curves, read-out: C. elegans Complex I IC50
[14] = read-out: C. elegans (ben-1) Development & Viability Assay LC50
[15] = read-out: C. elegans ben-1 log10 LC50 (converted)
[16] = 50 μM compound, hit = relative motility below 0.25 3 hours after removal of KCN
[17] = 50 μM compound, worm motility 3 hours after removal of KCN
[18] = wild-type C. elegans mitochondria, read-out: C. elegans Complex I IC50

C. elegans (N2) complex I (NADH:ubiquinone oxidoreductase), sequence (Q94360 17-199): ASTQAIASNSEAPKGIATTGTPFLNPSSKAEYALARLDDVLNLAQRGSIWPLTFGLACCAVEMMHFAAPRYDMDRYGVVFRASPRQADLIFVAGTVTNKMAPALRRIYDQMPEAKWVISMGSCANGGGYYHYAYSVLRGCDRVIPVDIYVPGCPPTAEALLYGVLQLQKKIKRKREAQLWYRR
C. elegans (N2) complex I (NADH:ubiquinone oxidoreductase), sequence (P24887 whole entry): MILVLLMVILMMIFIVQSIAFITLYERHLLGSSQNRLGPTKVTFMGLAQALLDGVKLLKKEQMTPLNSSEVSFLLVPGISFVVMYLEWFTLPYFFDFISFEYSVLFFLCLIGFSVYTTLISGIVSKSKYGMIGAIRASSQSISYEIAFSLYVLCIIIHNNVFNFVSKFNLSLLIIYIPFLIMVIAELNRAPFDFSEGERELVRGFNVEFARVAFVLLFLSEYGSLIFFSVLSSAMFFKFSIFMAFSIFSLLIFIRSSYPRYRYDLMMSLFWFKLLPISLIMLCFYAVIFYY
C. elegans (N2) complex I (NADH:ubiquinone oxidoreductase), sequence (Q93873 31-482): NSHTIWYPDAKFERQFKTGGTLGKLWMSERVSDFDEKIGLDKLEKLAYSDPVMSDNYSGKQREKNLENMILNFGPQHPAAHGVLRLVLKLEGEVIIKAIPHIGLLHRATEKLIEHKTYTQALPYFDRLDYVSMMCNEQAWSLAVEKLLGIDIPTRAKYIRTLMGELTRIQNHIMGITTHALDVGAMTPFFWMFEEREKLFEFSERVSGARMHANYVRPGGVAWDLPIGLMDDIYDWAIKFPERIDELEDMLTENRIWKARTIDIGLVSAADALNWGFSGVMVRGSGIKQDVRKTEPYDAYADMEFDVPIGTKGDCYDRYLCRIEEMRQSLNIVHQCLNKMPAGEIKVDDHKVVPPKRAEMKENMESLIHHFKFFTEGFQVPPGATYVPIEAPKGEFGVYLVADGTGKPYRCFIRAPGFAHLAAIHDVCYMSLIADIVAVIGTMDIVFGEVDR
C. elegans complex II (succinate dehydrogenase), sequence (P41956 30-182): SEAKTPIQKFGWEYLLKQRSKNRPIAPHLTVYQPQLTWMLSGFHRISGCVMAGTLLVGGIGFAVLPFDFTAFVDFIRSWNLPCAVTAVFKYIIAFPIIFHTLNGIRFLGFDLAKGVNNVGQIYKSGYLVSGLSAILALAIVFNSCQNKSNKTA
C. elegans complex II (succinate dehydrogenase), sequence (Q09545 22-298): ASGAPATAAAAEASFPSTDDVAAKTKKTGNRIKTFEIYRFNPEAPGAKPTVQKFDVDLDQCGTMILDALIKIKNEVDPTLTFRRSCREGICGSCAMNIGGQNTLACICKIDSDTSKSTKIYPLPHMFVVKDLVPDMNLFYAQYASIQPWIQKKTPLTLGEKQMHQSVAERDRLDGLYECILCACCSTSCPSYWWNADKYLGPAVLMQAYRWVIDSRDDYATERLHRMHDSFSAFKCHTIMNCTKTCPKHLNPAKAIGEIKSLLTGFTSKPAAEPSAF
C. elegans complex II (succinate dehydrogenase), sequence (Q09508 32-646, further chain): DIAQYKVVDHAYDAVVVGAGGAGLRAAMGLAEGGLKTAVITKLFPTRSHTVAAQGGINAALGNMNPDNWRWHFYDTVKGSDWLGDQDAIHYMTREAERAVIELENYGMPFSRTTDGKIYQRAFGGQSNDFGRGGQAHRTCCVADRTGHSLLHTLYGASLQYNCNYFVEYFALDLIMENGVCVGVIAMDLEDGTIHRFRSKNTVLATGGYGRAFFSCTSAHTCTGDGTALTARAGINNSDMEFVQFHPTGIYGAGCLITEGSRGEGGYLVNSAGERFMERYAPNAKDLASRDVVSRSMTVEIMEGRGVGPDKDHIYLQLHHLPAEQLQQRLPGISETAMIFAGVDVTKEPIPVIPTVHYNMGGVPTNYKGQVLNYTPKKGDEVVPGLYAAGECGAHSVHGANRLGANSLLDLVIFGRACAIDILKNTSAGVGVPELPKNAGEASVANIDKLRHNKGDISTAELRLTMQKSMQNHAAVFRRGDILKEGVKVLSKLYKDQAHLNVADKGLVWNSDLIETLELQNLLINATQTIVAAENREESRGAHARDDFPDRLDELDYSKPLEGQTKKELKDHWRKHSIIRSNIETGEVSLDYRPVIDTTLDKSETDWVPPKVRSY
C. elegans complex II (succinate dehydrogenase), sequence (O62215 31-145): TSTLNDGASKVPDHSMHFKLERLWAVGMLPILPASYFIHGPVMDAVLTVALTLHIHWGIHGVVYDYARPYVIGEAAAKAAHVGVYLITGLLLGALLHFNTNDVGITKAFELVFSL

SMILES	LC50 [6]	IC50 [4, 12]	Log IC50 C. elegans complex I ([4]; C. elegans mitochondria)	IC50 [4, 13]	LC50 [7, 14]	LC50 [7, 15]	Screen "Hit" [5, 16]	Relative Motility [5, 17]	IC50 [4, 18]	further results
CCCCCC[C@H]1C(=O)O[C@H](C)[C@H](NC(=O)c2cccc(NC=O)c2O)C(=O)O[C@@H](C)[C@@H]1OC(=O)CC(C)C [Antimycin A, reference compound]										% Activity Complex IV [1, 8]: 94.00 (1.10) %; CIV Activity ([1]; Mean): 94.002%; CIV Activity ([1]; single replicate): 97.456% and 95.348% and 87.857% and 95.349%; Percent in vitro activity, Complex IV (single replicate Rep1-Rep4) [1, 9]: 97.456% and 95.348% and 87.857% and 95.349%; Percent in vitro activity, Complex IV (Mean) [1, 10]: 94.002%; activity at 100 µM ([2]; 100 µM compound, relative to solvent control, mean (SEM), read-out: % Activity Complex II): 79.5%; activity at 100 µM ([2]; 100 μM inhibitor, in vitro activity relative to solvent control, N2 C. elegans mitochondria, Mean, read-out: CII Activity): 79.5%; Percent in vitro activity, Complex II (single replicate Rep1-Rep4) [2, 11]: 114.678% and 73.200% and 61.398% and 68.876%; activity at 100 µM ([2]; 100 μM of NPD compound, C. elegans mitochondria, mean of four biological replicates, read-out: Percent in vitro activity, Complex II (Mean)): 79.5%; % Activity Complex III [3, 8]: 0.00 (0.0) %; CIII Activity ([3]; Mean): 0.000%; CIII Activity ([3]; single replicate): 0.000%; Percent in vitro activity, Complex III (single replicate Rep1-Rep4) [3, 9]: 0.000%; Percent in vitro activity, Complex III (Mean) [3, 10]: 0.000%; activity at 100 µM ([4]; 100 µM compound, relative to solvent control, mean (SEM), read-out: % Activity Complex I): 117%; activity at 100 µM ([4]; 100 μM inhibitor, in vitro activity relative to solvent control, N2 C. elegans mitochondria, Mean, read-out: CI Activity): 117%; activity at 100 µM ([4]; 100 μM inhibitor, in vitro activity relative to solvent control, N2 C. elegans mitochondria, single replicate, read-out: CI Activity): 119%; Percent in vitro activity, Complex I (single replicate Rep1-Rep4) [4, 11]: 116.806% and 115.361% and 116.592%; activity at 100 µM ([4]; 100 μM of NPD compound, C. elegans mitochondria, individual biological replicates, read-out: Percent in vitro activity, Complex I (single replicate Rep1-Rep4)): 119%; activity at 100 µM ([4]; 100 μM of NPD compound, C. elegans mitochondria, mean of four biological replicates, read-out: Percent in vitro activity, Complex I (Mean)): 117%
c1ccc2[nH]c(CSc3nc4ccccc4o3)nc2c1 [Compound 5668941]	26.8 µM	19.6 µM	1.29 µM	19.6 µM	123 µM	123 µM				Screen "Hit" ([5]; 50 μM, KCN survival assay, hit = relative motility below 0.25): Y (hits were identified as compounds that reduced relative motility below 0.25 (75% reduction)); Relative Motility ([5]; 50 μM, worm motility 3 hours after the removal of KCN (endpoint)): 0.130
C(=C\c1nc2ccccc2[nH]1)/c1ccccc1 [STK871091]	15 µM			> 75 µM	148 µM	148 µM	Y (hits were identified as compounds that reduced relative motility below 0.25 (75% reduction))	0.008		
CCc1ccc(OC(C)c2nc3ccccc3[nH]2)cc1 (centres unmarked) [STK914290]	22.4 µM	71.3 µM	1.85 µM		227 µM	228 µM	Y (hits were identified as compounds that reduced relative motility below 0.25 (75% reduction))	0.082	71.3 µM	
CCc1ccc(CNc2nc3ccccc3n2C)cc1 [STK498539]	30.5 µM	40.8 µM	1.61 µM		214 µM	214 µM	Y (hits were identified as compounds that reduced relative motility below 0.25 (75% reduction))	0.042	40.8 µM	
